Values of other authors as cited in patent US20200338051A1, “NON-CLINICAL LIQUID FORMULATIONS OF PAN-JAK INHIBITOR” (Janssen Pharmaceutica NV, priority 2019, published 2020).
Where two headings read alike, the source gives them in different places.

Legend:
[1] = molecular target: JAK1 (Homo sapiens, UniProt P23458); settings: in vitro
[2] = molecular target: T1, JAK3 (Homo sapiens, UniProt P52333); settings: in vitro
T1 sequence (P52333 1-1124): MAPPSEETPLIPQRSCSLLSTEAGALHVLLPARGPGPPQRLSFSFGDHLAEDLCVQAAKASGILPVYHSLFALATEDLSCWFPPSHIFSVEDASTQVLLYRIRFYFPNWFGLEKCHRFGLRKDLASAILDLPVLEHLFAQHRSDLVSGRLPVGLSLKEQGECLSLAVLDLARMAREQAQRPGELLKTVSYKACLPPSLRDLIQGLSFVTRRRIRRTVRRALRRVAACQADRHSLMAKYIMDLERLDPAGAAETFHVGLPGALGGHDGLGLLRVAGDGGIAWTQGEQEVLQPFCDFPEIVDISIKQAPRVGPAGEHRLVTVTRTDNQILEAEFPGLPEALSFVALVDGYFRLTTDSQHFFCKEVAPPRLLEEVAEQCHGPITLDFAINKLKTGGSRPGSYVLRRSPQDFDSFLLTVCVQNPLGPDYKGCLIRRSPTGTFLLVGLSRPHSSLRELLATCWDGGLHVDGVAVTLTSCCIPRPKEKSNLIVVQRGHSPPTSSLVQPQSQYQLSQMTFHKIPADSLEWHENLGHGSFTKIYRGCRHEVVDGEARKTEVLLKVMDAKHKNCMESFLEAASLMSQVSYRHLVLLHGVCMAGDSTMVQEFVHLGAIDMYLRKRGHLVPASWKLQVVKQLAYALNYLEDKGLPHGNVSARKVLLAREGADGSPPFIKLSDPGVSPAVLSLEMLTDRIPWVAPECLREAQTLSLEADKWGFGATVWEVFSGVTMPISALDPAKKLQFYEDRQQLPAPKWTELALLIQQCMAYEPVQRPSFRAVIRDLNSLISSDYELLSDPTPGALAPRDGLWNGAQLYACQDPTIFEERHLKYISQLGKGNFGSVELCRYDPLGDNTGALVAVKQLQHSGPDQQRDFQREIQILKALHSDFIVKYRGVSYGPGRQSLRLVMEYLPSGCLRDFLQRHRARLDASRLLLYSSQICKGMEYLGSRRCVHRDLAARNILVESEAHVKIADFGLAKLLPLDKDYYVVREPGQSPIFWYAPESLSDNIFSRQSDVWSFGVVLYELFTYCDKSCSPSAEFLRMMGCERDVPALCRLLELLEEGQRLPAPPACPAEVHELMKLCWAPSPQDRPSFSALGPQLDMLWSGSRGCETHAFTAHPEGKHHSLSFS

[3] = molecular target: TYK2 (Homo sapiens, UniProt P29597); settings: in vitro
[4] = system: phosphorylation of STAT5; settings: PBMC, IL-2 stimulus
[5] = system: phosphorylation of STAT5; settings: PBMC, GM-CSF stimulus
[6] = molecular target: JAK2 (Homo sapiens, UniProt O60674); settings: in vitro
[7] = system: phosphorylation of STAT4; settings: PBMC, INF-α stimulus

Sequence of JAK1 (P23458 whole entry, species assumed): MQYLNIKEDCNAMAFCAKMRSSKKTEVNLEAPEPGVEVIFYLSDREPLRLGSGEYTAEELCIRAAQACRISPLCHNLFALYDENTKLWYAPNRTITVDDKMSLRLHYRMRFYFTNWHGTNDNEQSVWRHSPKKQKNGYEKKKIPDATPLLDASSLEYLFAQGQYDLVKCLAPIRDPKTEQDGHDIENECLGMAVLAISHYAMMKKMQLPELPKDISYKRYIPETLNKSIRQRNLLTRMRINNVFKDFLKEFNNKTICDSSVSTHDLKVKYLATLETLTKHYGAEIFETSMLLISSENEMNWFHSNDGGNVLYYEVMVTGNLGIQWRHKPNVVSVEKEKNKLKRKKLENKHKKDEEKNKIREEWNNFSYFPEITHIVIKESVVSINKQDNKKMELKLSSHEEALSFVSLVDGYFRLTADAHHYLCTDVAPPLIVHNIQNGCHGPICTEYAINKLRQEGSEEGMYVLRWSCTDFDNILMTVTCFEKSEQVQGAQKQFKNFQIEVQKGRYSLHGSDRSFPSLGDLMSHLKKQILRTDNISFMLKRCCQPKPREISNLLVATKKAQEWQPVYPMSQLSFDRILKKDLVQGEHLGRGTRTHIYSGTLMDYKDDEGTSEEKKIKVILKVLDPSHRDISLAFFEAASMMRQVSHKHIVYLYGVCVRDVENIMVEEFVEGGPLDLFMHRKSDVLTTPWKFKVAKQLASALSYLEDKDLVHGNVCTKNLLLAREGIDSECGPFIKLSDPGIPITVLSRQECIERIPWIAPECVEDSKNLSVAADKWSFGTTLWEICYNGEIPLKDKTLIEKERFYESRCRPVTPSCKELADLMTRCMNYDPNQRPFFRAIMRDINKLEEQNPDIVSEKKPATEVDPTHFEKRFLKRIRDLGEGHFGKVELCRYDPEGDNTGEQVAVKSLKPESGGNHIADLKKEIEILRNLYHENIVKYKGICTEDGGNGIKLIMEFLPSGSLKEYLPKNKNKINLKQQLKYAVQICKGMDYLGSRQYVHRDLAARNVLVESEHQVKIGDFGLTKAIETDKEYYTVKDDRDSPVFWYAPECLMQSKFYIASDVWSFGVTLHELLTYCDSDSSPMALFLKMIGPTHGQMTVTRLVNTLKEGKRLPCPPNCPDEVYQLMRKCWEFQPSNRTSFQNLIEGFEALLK
Sequence of JAK2 (O60674 whole entry, species assumed): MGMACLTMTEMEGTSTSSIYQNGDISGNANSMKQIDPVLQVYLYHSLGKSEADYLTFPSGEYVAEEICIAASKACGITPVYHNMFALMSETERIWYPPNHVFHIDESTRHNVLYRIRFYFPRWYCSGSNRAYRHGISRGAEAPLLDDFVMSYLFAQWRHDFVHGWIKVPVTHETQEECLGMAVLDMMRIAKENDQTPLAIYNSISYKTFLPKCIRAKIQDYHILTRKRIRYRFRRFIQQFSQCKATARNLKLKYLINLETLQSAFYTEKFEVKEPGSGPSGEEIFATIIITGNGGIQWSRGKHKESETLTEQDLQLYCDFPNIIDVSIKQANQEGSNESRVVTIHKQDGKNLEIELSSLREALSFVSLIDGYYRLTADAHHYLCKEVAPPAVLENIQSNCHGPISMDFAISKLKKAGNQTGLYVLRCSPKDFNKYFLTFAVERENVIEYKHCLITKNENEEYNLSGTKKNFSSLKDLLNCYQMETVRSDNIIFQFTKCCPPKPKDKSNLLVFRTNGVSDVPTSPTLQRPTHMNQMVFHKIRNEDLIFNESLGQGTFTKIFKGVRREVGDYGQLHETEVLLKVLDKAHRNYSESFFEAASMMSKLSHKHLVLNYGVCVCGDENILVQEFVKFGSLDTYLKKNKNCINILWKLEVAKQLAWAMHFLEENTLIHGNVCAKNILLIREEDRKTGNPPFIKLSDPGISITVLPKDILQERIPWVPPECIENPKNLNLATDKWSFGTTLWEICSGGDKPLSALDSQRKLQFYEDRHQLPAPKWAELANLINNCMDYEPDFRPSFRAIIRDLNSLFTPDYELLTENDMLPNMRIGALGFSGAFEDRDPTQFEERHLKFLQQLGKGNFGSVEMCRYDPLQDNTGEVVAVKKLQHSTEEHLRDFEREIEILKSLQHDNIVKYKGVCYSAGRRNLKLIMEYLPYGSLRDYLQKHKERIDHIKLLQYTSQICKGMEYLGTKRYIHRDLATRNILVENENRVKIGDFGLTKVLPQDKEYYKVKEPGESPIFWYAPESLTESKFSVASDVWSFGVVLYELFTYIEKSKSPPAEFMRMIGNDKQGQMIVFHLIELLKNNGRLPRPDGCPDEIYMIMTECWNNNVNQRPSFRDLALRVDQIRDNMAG
Sequence of TYK2 (P29597 whole entry, species assumed): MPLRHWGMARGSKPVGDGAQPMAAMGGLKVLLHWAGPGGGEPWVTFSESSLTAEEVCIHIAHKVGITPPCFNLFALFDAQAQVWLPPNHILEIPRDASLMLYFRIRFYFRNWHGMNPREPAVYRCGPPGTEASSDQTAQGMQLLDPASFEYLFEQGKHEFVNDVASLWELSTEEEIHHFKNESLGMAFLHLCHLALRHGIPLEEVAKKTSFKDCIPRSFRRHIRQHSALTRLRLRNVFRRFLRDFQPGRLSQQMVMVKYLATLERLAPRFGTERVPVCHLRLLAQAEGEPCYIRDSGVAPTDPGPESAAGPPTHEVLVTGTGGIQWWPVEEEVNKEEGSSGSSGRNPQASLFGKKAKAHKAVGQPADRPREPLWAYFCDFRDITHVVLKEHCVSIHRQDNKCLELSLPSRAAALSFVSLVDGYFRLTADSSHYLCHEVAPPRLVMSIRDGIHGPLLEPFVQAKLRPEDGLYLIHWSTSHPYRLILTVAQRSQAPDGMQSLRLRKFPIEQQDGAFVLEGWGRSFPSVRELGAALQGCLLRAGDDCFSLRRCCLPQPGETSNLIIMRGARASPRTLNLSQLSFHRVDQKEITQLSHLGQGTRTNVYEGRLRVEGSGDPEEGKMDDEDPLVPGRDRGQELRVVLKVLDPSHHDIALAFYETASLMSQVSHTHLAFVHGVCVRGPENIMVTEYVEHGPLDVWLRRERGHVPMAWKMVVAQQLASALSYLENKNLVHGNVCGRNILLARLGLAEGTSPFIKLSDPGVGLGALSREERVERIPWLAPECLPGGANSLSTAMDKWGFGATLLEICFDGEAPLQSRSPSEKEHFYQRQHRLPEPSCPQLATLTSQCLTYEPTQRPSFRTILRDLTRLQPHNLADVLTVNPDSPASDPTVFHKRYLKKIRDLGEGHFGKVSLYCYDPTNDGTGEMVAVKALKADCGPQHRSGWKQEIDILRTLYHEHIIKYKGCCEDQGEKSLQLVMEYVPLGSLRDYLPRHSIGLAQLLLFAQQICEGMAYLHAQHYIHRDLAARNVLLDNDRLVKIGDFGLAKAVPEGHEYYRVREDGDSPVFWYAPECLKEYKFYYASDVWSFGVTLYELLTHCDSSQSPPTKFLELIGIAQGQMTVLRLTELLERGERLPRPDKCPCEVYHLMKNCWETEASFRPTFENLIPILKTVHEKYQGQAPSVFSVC

## CC(C)(O)CNC(=O)Cc1nc2cnc3[nH]ccc3c2n1[C@H]1CC[C@H](CC#N)CC1 [drug substance, 2-(1-((1r,4r)-4-(cyanomethyl)cyclohexyl)-1,6-dihydroimidazo[4,5-d]pyrrolo[2,3-b]pyridin-2-yl)-N-(2-hydroxy-2-methylpropyl)acetamide]
[1]
  Enzymatic activity at JAK1: potent enzymatic activity
In vivo
  Systemic exposure: low systemic exposure
intra-colonic dosing
  Concentrations in the colon versus plasma: much higher than those in the plasma
Oral dosing
  Concentrations in the colon versus plasma: much higher than those in the plasma
[2]
  Enzymatic activity at JAK3: potent enzymatic activity
[3]
  Enzymatic activity at TYK2: potent enzymatic activity
[4]
  Inhibition of phosphorylation of STAT5: showed cellular activity
[5]
  Inhibition of phosphorylation of STAT5: showed cellular activity
[6]
  Enzymatic activity at JAK2: potent enzymatic activity
[7]
  Inhibition of phosphorylation of STAT4: showed cellular activity
